Experimental data as given in US20220016200A1, “PHARMACEUTICAL COMPOSITION FOR THE TREATMENT OF CYSTIC FIBROSIS” (GALENUS G.H. AG, priority 2018, published 2022).

Legend:
A. junii 1397597 [1] = assay: Checkerboard fusidic acid (FD) and colistin sulfate (CS), MIC/FIC and MBC/FBC; format: cell-based, Acinetobacter junii; details: agent alone, CAMHB, 1*10^6 CFU/ml
Method: (§1) Checkerboard assays between fusidic acid (FD) and colistin sulfate (CS) with a bacterial load 5(1-10)*10^5 CFU/ml in cationic adapted Mueller Hinton broth (CAMHB). • a. Antimicrobial stock solutions were prepared using sterile distilled water; • b. CS was added along the ordinate; FD was added along the abscissa to 96 well, flat bottom, polystyrene panels with no treatment. Colistin alone was tested in triplicates; • c. Serial 2-fold dilutions starting with 640 […] CS and 640 μg/ml FD were made; 15 μl volume of the serial dilutions were added for each agent to the appropriate wells—final volume at 30 μl; • d. For each agent tested alone an additional 15 μl media was added to the well. 30 μl were added in control wells where none of the agent was tested. The negative control well contains 150 μl media without any additions; • e. From an overnight bacterial culture in tryptic soy broth, 100 μL was added to 10 mL of fresh tryptic soy broth. This was then incubated at 37° C. for 1.5 hour at 180 rpm; • f. Bacteria in 120 μl CAMHB were added to each well (end concentration 5(1-10)*10^5 CFU/ml); • g. Plates were incubated at 37° C. in an ambient air incubator for 24 h • h. Turbidity at OD600 is determined with a plate photometer • i. By using a one-time inoculator 3 μl from each well of the 96-well plate were transferred to three blood agar plates. The plates were incubated over night at 37° C. in an ambient air incubator; • j. MIC values are defined as lowest concentration which restricts bacterial growth to OD600≤0.1; • k. MBC values were determined by visual reading the lowest concentration which inhibits 99.9% of the growth of bacteria in the wells; • l. Determination of the fractional inhibitory concentration (FIC) index and fractional bactericidal concentration (FBC) index and characterization of antimicrobial interactions was assessed;
(§2) FIC calculation was carried out as: (MIC of drug A, tested in combination)/(MIC of drug A, tested alone)+(MIC of drug B, tested in combination)/(MIC of drug B, tested alone). FBC calculation was carried out just as well;
(§3) Interactive categories were calculated from checkerboard analysis using MIC results from testing each agent alone and MIC results from the combination wells adjacent to the wells with growth in them.
(§4) Determination of the fractional inhibitory concentration (FIC) index and fractional bactericidal concentration (FBC) index and characterization of antimicrobial interactions was assessed:
(§5) (ii) Indifference; FIC/FBC>0.5 to <4.0
(§6) (iii) Antagonism; FIC/FBC≥4.0
a. Acinetobacter junii 1391597 (IHMA), colistin resistant (CS 2/2-2/8)

A. nosocomialis 1461911 [2] = assay: as above; format: cell-based, Acinetobacter nosocomialis; details: A. nosocomialis 1461911, agent alone, CAMHB, 1*10^6 CFU/ml
Method: as §1, §2, §3, §4, §5, §6
b. Acinetobacter nosocomialis 1461911 (IHMA), colistin resistant (3xCS 4/8)

A. haemolyticus 1655843 [3] = assay: as above; format: cell-based, Acinetobacter haemolyticus; details: agent alone, CAMHB, 1*10^6 CFU/ml
Method: as §1, §2, §3, §4, §5, §6
c. Acinetobacter haemolyticus 1655843 (IHMA), colistin resistant (3xCS>16/>16-64/>64)

A. guillouiae 1285286 [4] = assay: as above; format: cell-based, Acinetobacter guillouiae; details: agent alone, CAMHB, 1*10^6 CFU/ml
Method: as §1, §2, §3, §4, §5, §6
d. Acinetobacter guillouiae 1285286 (IHMA), colistin resistant (2xCS 2/4)

S. maltophilia 1221783 [5] = assay: Checkerboard fusidic acid (FD) and colistin sulfate (CS), MIC/FIC; format: cell-based, Stenotrophomonas maltophilia; details: agent alone, CAMHB, 1*10^6 CFU/ml, 24 h
Method: Checkerboard assays between fusidic acid (FD) and colistin sulfate (CS) with a bacterial load 5(1-10)*10^5 CFU/ml in cationic adapted Mueller Hinton broth (CAMHB). • a. Antimicrobial stock solutions were prepared using sterile distilled water; • b. CS was added along the ordinate; FD was added along the abscissa to 96 well, flat bottom, polystyrene panels with no treatment. Colistin alone was tested in triplicates; • c. Serial 2-fold dilutions starting with 640 […] CS and 640 μg/ml FD were made; 15 μl volume of the serial dilutions were added for each agent to the appropriate wells—final volume at 30 μl; • d. For each agent tested alone an additional 15 μl media was added to the well. 30 μl were added in control wells where none of the agent was tested. […] Turbidity at OD600 is determined with a plate photometer • i. […] Determination of the fractional inhibitory concentration (FIC) index and fractional bactericidal concentration (FBC) index and characterization of antimicrobial interactions was assessed; […]
as §3
Determination of the fractional inhibitory concentration (FIC) index and fractional bactericidal concentration (FBC) index and characterization of antimicrobial interactions was assessed: […]

S. maltophilia 1237289 [6] = assay: as above; format: cell-based, Stenotrophomonas maltophilia; details: S. maltophilia 1237289, agent alone, CAMHB, 1*10^6 CFU/ml
Method: as §1, §2, §3, §4, §5, §6
e. Stenotrophomonas maltophilia 1237289 (IHMA), colistin resistant (CS 2/4-4/8-8/8)

A. junii 1397597 [7] = assay: Checkerboard colistin sulphate (CS) plus teicoplanin (TP), MIC/FIC and MBC/FBC; format: cell-based, Acinetobacter junii; details: agent alone, CAMHB, 5*10^5 CFU/ml
Method: (§7) Checkerboard analysis to determine minimal inhibitory concentration (MIC)/fractional inhibitory concentration (FIC) and minimal bacterial concentration (MBC)/fractional bacterial concentration (FBC) values of colistin sulphate (CS) plus teicoplanin (TP) for 6 Gram-negative strains with a bacterial load 5(1-10)*10^5 CFU/ml in a cation-adjusted Mueller-Hinton broth (CAMHB). • a. Antimicrobial stock solutions were prepared using sterile distilled water • b. CS was added along the ordinate; TP was added along the abscissa to 96 well, flat bottom, polystyrene panels with no treatment. Colistin alone was tested in triplicates. • c. Serial 2-fold dilutions starting with 640 μg/ml CS and 640 μg/ml TP were made; 15 μl volume of the serial dilutions were added for each agent to the appropriate wells; final volume at 30 μl • d. For each agent tested alone an additional 15 μl media was added to the well. 30 μl were added in control wells where none of the agent was tested. The negative control well contains 150 μl media without any additions • e. From an overnight bacterial culture in tryptic soy broth, 100 μL was added to 10 mL of fresh tryptic soy broth. This was then incubated at 37° C. for 1.5 hour at 180 rpm. • f. Bacteria in 120 μl CAMHB were added to each well (end concentration 5(1-10)*10^5 CFU/ml) • g. Plates were incubated at 37° C. in an ambient air incubator for 24 h • h. Turbidity at OD600 is determined with a plate photometer • i. By using a one-time inoculator 3 μl from each well of the 96-well plate were transferred to three blood agar plates. The plates were incubated over night at 37° C. in an ambient air incubator • j. […] Determination of the fractional inhibitory concentration (FIC) index and fractional bactericidal concentration (FBC) index and characterization of antimicrobial interactions was assessed […]
(§8) Interactive categories were calculated from checkerboard analysis using MIC results from testing each agent alone and MIC results from the combination wells adjacent to the wells with growth in them […]

A. nosocomialis 1461911 [8] = assay: as above; format: cell-based, Acinetobacter nosocomialis; details: agent alone, CAMHB, 5*10^5 CFU/ml
Method: (§9) Checkerboard analysis to determine minimal inhibitory concentration (MIC)/fractional inhibitory concentration (FIC) and minimal […] (MBC)/fractional […] (FBC) values of colistin sulphate (CS) plus teicoplanin (TP) for 6 Gram-negative strains with a bacterial load 5(1-10)*10^5 CFU/ml in a cation-adjusted Mueller-Hinton broth (CAMHB). • a. Antimicrobial stock solutions were prepared using sterile distilled water • b. CS was added along the ordinate; TP was added along the abscissa to 96 well, flat bottom, polystyrene panels with no treatment. Colistin alone was tested in triplicates. • c. Serial 2-fold dilutions starting with 640 μg/ml CS and 640 μg/ml TP were made; 15 μl volume of the serial dilutions were added for each agent to the appropriate wells; final volume at 30 μl • d. For each agent tested alone an additional 15 μl media was added to the well. 30 μl were added in control wells where none of the agent was tested. The negative control well contains 150 μl media without any additions • e. From an overnight bacterial culture in tryptic soy broth, 100 μL was added to 10 mL of fresh tryptic soy broth. This was then incubated at 37° C. for 1.5 hour at 180 rpm. • f. Bacteria in 120 μl CAMHB were added to each well (end concentration 5(1-10)*10^5 CFU/ml) • g. Plates were incubated at 37° C. in an ambient air incubator for 24 h • h. Turbidity at OD600 is determined with a plate photometer • i. By using a one-time inoculator 3 μl from each well of the 96-well plate were transferred to three blood agar plates. The plates were incubated over night at 37° C. in an ambient air incubator • j. MIC values are defined as lowest concentration which restricts bacterial growth to OD600 ≤0.1 • k. MBC values were determined by visual reading the lowest concentration which inhibits 99.9% of the growth of bacteria in the wells • l. Determination of the fractional inhibitory concentration (FIC) index and fractional bactericidal concentration (FBC) index and characterization of antimicrobial interactions was assessed […]
(§10) FIC calculation was carried out as: (MIC of drug A, tested in combination)/(MIC of drug A, tested alone)+(MIC of drug B, tested in combination)/(MIC of drug B, tested alone). FBC calculation was carried out just as well […]
as §8
b. Indifference; FIC/FBC>0.5 to<4.0 c. Antagonism; FIC/FBC≥4.0 b. A. nosocomialis 1461911 (IHMA), colistin resistant

A. haemolyticus 1655843 [9] = assay: as above; format: cell-based, Acinetobacter haemolyticus; details: agent alone, CAMHB, 5*10^5 CFU/ml
Method: as §9, §10, §8
b. Indifference; FIC/FBC>0.5 to<4.0 c. Antagonism; FIC/FBC≥4.0 c. A. haemolyticus 1655843 (IHMA), colistin resistant

A. guillouiae 1285286 [10] = assay: as above; format: cell-based, Acinetobacter guillouiae; details: agent alone, CAMHB, 5*10^5 CFU/ml
Method: as §9, §10, §8
b. Indifference; FIC/FBC>0.5 to<4.0 c. Antagonism; FIC/FBC≥4.0 d. A. guillouiae 1285286 (IHMA), colistin resistant

S. maltophilia 1221783 [11] = assay: as above; format: cell-based, Stenotrophomonas maltophilia; details: agent alone, CAMHB, 5*10^5 CFU/ml, 24 h
Method: as §7, §8

S. maltophilia 1237289 [12] = assay: as above; format: cell-based, Stenotrophomonas maltophilia; details: S. maltophilia 1237289, agent alone, CAMHB, 5*10^5 CFU/ml
Method: as §9, with “Plates were incubated at 37° C. in an ambient air incubator for 24 h • h.” left out
as §10, §8
b. Indifference; FIC/FBC>0.5 to<4.0 c. Antagonism; FIC/FBC≥4.0 f. S. maltophilia 1237289 (IHMA), colistin resistant

[13] = system: Methicillin-resistant Staphylococcus aureus (MRSA); assay: Three-step decolonization protocol for MRSA in paediatric patients with cystic fibrosis; format: in vivo; details: patients are to receive a further five-day intravenous treatment to increase the success rate
Method: Methicillin-resistant Staphylococcus aureus (MRSA) is a bacterial pathogen in patients with cystic fibrosis (CF) although its clinical effects can be variable. In a three-step decolonization protocol for MRSA 15 paediatric patients are treated during a long follow-up period where 50% are successfully decolonized following one five-day course of i.v. Colistin and fusidic acid. To increase the success rate the patients are to receive a five-day intravenous teicoplanin treatment to clear MRSA colonization to 90-100%.

[14] = in vivo; cited from earlier work
[15] = after 48 h growth (values in brackets)

Molecule: CC(=O)O[C@H]1C[C@@]2(C)[C@@H](C[C@@H](O)[C@H]3[C@@]4(C)CC[C@@H](O)[C@@H](C)[C@@H]4CC[C@@]32C)/C1=C(\CCC=C(C)C)C(=O)O [FD, fusidic acid]
- MIC (A. junii 1397597 [1]; A. junii 1397597, 24 h): 32 mg/1l
- MBC (A. junii 1397597 [1]; Acinetobacter junii, 1397597, A. junii 1397597): 64 µg/mL
- MIC (A. nosocomialis 1461911 [2]; 24 h): >64 mg/1l
- MBC (A. nosocomialis 1461911 [2]; Acinetobacter nosocomialis): > 64 µg/mL
- MIC (A. haemolyticus 1655843 [3]; A. haemolyticus 1655843, 24 h): 32 mg/1l
- MBC (A. haemolyticus 1655843 [3]; Acinetobacter haemolyticus, 1655843, A. haemolyticus 1655843): 64 µg/mL
- MIC (A. guillouiae 1285286 [4]; A. guillouiae 1285286, 24 h): 16 mg/1l
- MBC (A. guillouiae 1285286 [4]; Acinetobacter guillouiae, 1285286, A. guillouiae, read-out: MBC): > 64 µg/mL
- MIC (S. maltophilia 1221783 [5]): 64 mg/1l
- MIC (S. maltophilia 1237289 [6]; 24 h): >64 mg/1l
- MIC (S. maltophilia 1237289 [6]; [15]): (>64) mg/1l

Molecule: teicoplanin [TP]
- MIC (A. junii 1397597 [7]; A. junii 1397597, 24 h): >64 µg/mL
- MBC (A. junii 1397597 [7]; A. junii): >64 µg/mL
- MIC (A. nosocomialis 1461911 [8]; A. nosocomialis 1461911, 24 h): >64 µg/mL
- MBC (A. nosocomialis 1461911 [8]; A. nosocomialis): >64 µg/mL
- MIC (A. haemolyticus 1655843 [9]; A. haemolyticus 1655843, 24 h): >64 µg/mL
- MBC (A. haemolyticus 1655843 [9]; A. haemolyticus): >64 µg/mL
- MIC (A. guillouiae 1285286 [10]; A. guillouiae 1285286, 24 h): >64 µg/mL
- MBC (A. guillouiae 1285286 [10]; A. guillouiae): >64 µg/mL
- MIC (S. maltophilia 1221783 [11]): >64 µg/mL
- MIC (S. maltophilia 1237289 [12]; 24 h): >64 µg/mL
- MIC (S. maltophilia 1237289 [12]; [15]): (>64) mg/l
- clear MRSA colonization to [13]: 90-100%
- terminal half-life, mean (±SD) [14]: 157 (±93) h
- terminal half-life, median (range) [14]: 168 (111-278) h
